# Results as given in US20070179154A1, “Coumarin derivatives, process for their production and use thereof” (Takeda Pharmaceutical Company Limited, priority 2002, published 2007).
# Legend:
# [1] = target: T1, mouse abdominal macrophage microsome ACAT (Mus musculus, UniProt Q61263); assay: ACAT inhibitory activity (mouse abdominal macrophage microsome ACAT); assay type: biochemical; conditions: microsome ACAT from thioglycolate-stimulated C57BL6J mouse abdominal macrophage; 3H-oleyl-CoA, 37° C. for 20 minutes; read-out: Enzyme inhibition (IC50)
# T1 construct: from tissue; host or cells: microsomes of thioglycolate-elicited peritoneal (abdominal) macrophages of C57BL6J mice, cultured 24 h with rabbit beta-VLDL
# T1 sequence (Q61263 1-540): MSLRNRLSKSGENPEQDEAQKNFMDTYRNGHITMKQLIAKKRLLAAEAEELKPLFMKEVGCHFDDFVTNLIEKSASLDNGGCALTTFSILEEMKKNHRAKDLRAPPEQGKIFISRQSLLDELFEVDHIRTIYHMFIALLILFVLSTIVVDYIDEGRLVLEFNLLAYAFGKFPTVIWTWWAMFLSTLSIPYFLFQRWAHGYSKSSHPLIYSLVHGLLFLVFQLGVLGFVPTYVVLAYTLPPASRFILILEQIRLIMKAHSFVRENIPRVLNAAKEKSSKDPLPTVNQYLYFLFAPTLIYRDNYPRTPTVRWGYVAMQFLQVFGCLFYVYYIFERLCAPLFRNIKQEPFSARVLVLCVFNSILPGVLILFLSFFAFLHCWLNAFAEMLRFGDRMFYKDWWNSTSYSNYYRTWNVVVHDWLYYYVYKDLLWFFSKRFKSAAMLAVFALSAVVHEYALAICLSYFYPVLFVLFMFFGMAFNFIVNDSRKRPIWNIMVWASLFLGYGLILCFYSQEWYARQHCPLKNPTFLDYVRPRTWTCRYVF
# Description: [Preparation of Mouse Abdominal Macrophage Microsome ACAT]
# According to the method of Hakamada et al. (Experimental Medicine Suppliment vol. 14, No. 12, Circulation Research Protocol, p, 49-52, 1996), an abdominal macrophage was taken from a thioglycolate-stimulated C57BL6J mouse and cultured for 24 hours in a RPMI 1640-25 mM HEPES (pH7.0) medium containing rabbit β-very low density lipoprotein (β-VLDL, 150 μg cholesterol/ml) which had been prepared by the method of Ishii et al. (Ishii I et al., Arterioscler, Thromb, 12, 1139-1145, 1992). The abdominal macrophage was then collected by centrifugation (4° C., 1.000 rpm, 5 minutes) and sonicated. The sonicated liquid was centrifuged (4° C., 5000 rpm, 15 minutes) and then ultracentrifuged (4° C., 50, 000 rpm, 90 minutes) to prepare a microsome. The microsome thus obtained was used for measuring ACAT inhibitory activity of a test compound as mouse abdominal macrophage microsome ACAT.
# [Method for Measuring ACAT Inhibitory Activity]
# A mixture of a test compound, cholesterol-albumin-containing-Tris-HCL buffer (pH 7.5) and mouse abdominal macrophage microsome ACAT was pre-incubated at 37° C. for 10 minutes, and ^3H-oleyl-CoA was added to react at 37° C. for 20 minutes. A stopping solution composed of chloroform-methyl alcohol-distilled water (2:2:1 v/v) was added, and produced cholesteryl ester (CE) was extracted with shaking. The extract was subjected to silica gel thin chromatography (petroleum ether:diethyl ether:acetic acid=9:1:0.1 v/v), and the resulting ^3H-CE fraction was measured with a scintillation counter.
# ACAT inhibiting rate was calculated from the proportion based on ACAT activity without a test compound, and an IC50 value was calculated as the concentration (μM) of a test compound showing ACAT inhibiting rate 50%. The results are shown in [Table 15].
IC50 [1],melting point,SMILES
550 nM,226 to 228 °C,O=C(O)CCc1cccc(-c2c(CC(=O)Nc3ccc(F)cc3C(F)(F)F)c(=O)oc3cc(Cl)c(CN4CCN(c5ccccc5)CC4)cc23)c1 [Example 114]
610 nM,239 to 241 °C,"O=C(O)/C=C/c1cccc(-c2c(CC(=O)Nc3ccc(Cl)cc3C(F)(F)F)c(=O)oc3cc(Cl)c(CN4CCN(c5ccccc5)CC4)cc23)c1 [Example 111, (2E)-3-(3-{7-chloro-3-(2-{[4-chloro-2-(trifluoromethyl)phenyl]amino}-2-oxoethyl)-2-oxo-6-[(4-phenylpiperazin-1-yl)methyl]-2H-chromen-4-yl}phenyl)acrylic acid]"
1220 nM,151 to 153 °C,"O=C(Cc1c(-c2cccc(C(=O)O)c2)c2cc(CN3CCN(c4ccccc4)CC3)c(Cl)cc2oc1=O)Nc1ccc(Cl)cc1C(F)(F)F [Example 113, 3-{7-chloro-3-(2-{[4-chloro-2-(trifluoromethyl)phenyl]amino}-2-oxoethyl)-2-oxo-6-[(4-phenylpiperazin-1-yl)methyl]-2H-chromen-4-yl}benzoic acid]"
430 nM,,Cc1cc2c(-c3cccc(CCCC(=O)O)c3)c(CC(=O)Nc3ccc(F)cc3C(F)(F)F)c(=O)oc2cc1Cl [Example 78]
540 nM,149 to 151 °C,"O=C(Cc1c(-c2cccc(C(=O)O)c2)c2cc(CN3CCN(c4ccccc4)CC3)c(Cl)cc2oc1=O)Nc1ccc(F)cc1C(F)(F)F [Example 112, 3-{7-chloro-3-(2-{[4-fluoro-2-(trifluoromethyl)phenyl]amino}-2-oxoethyl)-2-oxo-6-[(4-phenylpiperazin-1-yl)methyl]-2H-chromen-4-yl}benzoic acid]"
540 nM,238 to 240 °C,"O=C(O)/C=C/c1cccc(-c2c(CC(=O)Nc3ccc(F)cc3C(F)(F)F)c(=O)oc3cc(Cl)c(CN4CCN(c5ccccc5)CC4)cc23)c1 [Example 110, (2E)-3-(3-{7-chloro-3-(2-{[4-fluoro-2-(trifluoromethyl)phenyl]amino}-2-oxoethyl)-2-oxo-6-[(4-phenylpiperazin-1-yl)methyl]-2H-chromen-4-yl}phenyl)acrylic acid]"
420 nM,207 to 209 °C,O=C(O)CCc1cccc(-c2c(CC(=O)Nc3ccc(Cl)cc3C(F)(F)F)c(=O)oc3cc(Cl)c(CN4CCN(c5ccccc5)CC4)cc23)c1 [Example 115]
,212 to 214 °C,"Cc1cc2c(-c3cccc(CCC(=O)O)c3)c(CC(=O)Nc3ccc(F)cc3C(F)(F)F)c(=O)oc2cc1Cl [Example 14, 3-[5-[7-chloro-3-[2-[[4-fluoro-2-(trifluoromethyl)phenyl]amino]-2-oxoethyl]-6-methyl-2-oxo-2H-chromen-4-yl]phenyl]propionic acid]"
,163 to 164 °C,"CCOC(=O)CCc1cccc(-c2c(CC(=O)Nc3ccc(F)cc3C(F)(F)F)c(=O)oc3ccccc23)c1 [Example 13, ethyl 3-[3-[3-[2-[[4-fluoro-2-(trifluoromethyl)phenyl]amino]-2-oxoethyl]-2-oxo-2H-chromen-4-yl]phenyl]propionate]"
,202 to 204 °C,"COC(=O)c1ccc(-c2c(CC(=O)Nc3ccc(F)cc3C(F)(F)F)c(=O)oc3cc(Cl)c(C)cc23)cc1 [Example 45, Methyl 4-(7-chloro-3-{2-[4-fluoro-2-(trifluoromethyl)anilino]-2-oxoethyl}-6-methyl-2-oxo-2H-chromen-4-yl)benzoate]"
,121 to 123 °C,"CCOC(=O)CCc1cccc(-c2c(CC(=O)Nc3ccc(F)cc3C(F)(F)F)c(=O)oc3cc(Cl)c(C)cc23)c1 [Example 8, ethyl 3-[5-[7-chloro-3-[2-[[4-fluoro-2-(trifluoromethyl)phenyl]amino]-2-oxoethyl]-6-methyl-2-oxo-2H-chromen-4-yl]phenyl]propionate]"
,278 to 280 °C,Cc1cc2c(-c3cccc(C(=O)O)c3)c(CC(=O)Nc3ccc(F)cc3C(F)(F)F)c(=O)oc2cc1Cl [Example 2]
,198 to 200 °C,"O=C(O)CCc1cccc(-c2c(CC(=O)Nc3ccc(F)cc3C(F)(F)F)c(=O)oc3cc(Cl)c(F)cc23)c1 [Example 22, 3-[3-[7-chloro-6-fluoro-3-[2-[[4-fluoro-2-(trifluoromethyl)phenyl]amino]-2-oxoethyl]-2-oxo-2H-chromen-4-yl]phenyl]propionic acid]"
,295 °C (dec.),Cc1cc2c(-c3cccc(Cc4noc(=O)[nH]4)c3)c(CC(=O)Nc3ccccc3C(F)(F)F)c(=O)oc2cc1Cl [Example 101]
,135 to 137 °C,COC(=O)c1cccc(-c2c(CC(=O)Nc3ccc(F)cc3C(F)(F)F)c(=O)oc3cc(Cl)c(CN4CCN(c5ccccc5)CC4)cc23)c1 [Example 108]
,106 to 108 °C,"CCOC(=O)CSCc1cccc(-c2c(CC(=O)Nc3ccc(F)cc3C(F)(F)F)c(=O)oc3cc(Cl)c(C)cc23)c1 [Example 63, Ethyl ({3-[7-chloro-3-(2-{[4-fluoro-2-(trifluoromethyl)phenyl]amino}-2-oxoethyl)-6-methyl-2-oxo-2H-chromen-4-yl]benzyl}thio)acetate]"
